Laboratory results taken from patent publication US20260199533A1, “RA[…]-AFFINITY COMPOUND AND USE THEREOF” (Osaka University, priority 2022, published 2026).

Tests used:
[1] = system: FAPα/293 cells (293 cells transfected with the human fibroblast activation protein (FAPα) gene); test: Uptake of 211At-labeled FAPI derivatives into FAPα/293 cells; format: cell-based; conditions: cultured 30 min, gamma counter, rank order of the three highest of eight derivatives
Experimental: Human embryonic kidney 293 cells (HEK293), and 293 cells transfected with the human fibroblast activation protein (FAPα) gene (FAPα/293) were used in the experiment as FAPα-negative and FAPα-positive cells, respectively. For each type, the cells were seeded in a 24-well plate at 2×10^4 cells per well and cultured for 2 days. An appropriate amount of eight ^211At-labeled FAPI derivatives (Gly(1,F) (Example 8), PEG(1,F) (Example 5), PIP(1,F) (Example 1), PIP(1,H)-8Qui (Example 3), Ac-PIP (Example 13), PEG4(1,H) (Example 7), GlcN-PEG(1,F) (Example 11), PEG(1,H) (Example 6)) were added to each type of the above cells, respectively, and cultured for 30 min. The supernatant was removed by aspiration, and then 0.1N sodium hydroxide solution was added to lyse the cells, and the intracellular radioactivity was measured by a gamma counter. The radioactivity count was corrected per unit protein amount (counts/μg protein). The three compounds with the highest uptake levels into FAPα-positive cells were PIP(1,F)>PIP(1,H)-8Qui>PEG(1,H), in order of […] level.

[2] = Changes in body weight of human pancreatic cancer-transplanted mice; format: in vivo, nude mice; conditions: intravenous 1 MBq per mouse, N=4, three weeks, vs saline control
Experimental: (§1) Human pancreatic cancer cells (PANC-1) were subcutaneously administered at 1×10^7 cells to nude mice (male, 6-weeks old) to generate pancreatic cancer-transplanted mice. The mice were intravenously injected with ^211At(C1)-Pip-6Qui-FAPI(H) (PIP(1,H), Example 2) or 211At(C1)-PEG2-6Qui-FAPI(H) (PEG(1,H), Example 6) at 1 MBq per mouse (N=4). Physiological saline was administered to the control group (Control (Saline)) (N=4).

[3] = system: Human pancreatic cancer cells (PANC-1); test: Inhibitory effect on tumor growth in human pancreatic cancer-transplanted mice; format: in vivo, nude mice; conditions: PANC-1 subcutaneous, intravenous 1 MBq per mouse, N=4, three weeks, vs saline control
Experimental: as §1

FAPα/MDA-MB-231 cells = test: Uptake of 211At-labeled FAPI derivatives into MDA-MB-231 and FAPα/MDA-MB-231 cells; format: cell-based, human; conditions: for uptake level in dependence on FAPα expression: MDA-MB-231 (low FAPα) vs FAPα/MDA-MB-231 (high FAPα), 30 min; for competitive inhibition by addition of the corresponding unlabeled form: MDA-MB-231 / FAPα/MDA-MB-231 cells
Text: (§2) Human non-small cell lung cancer cell lines (A549), human triple-negative (estrogen and progesterone receptors which are hormone receptors, as well as HER2 protein, are all absent) breast cancer cell lines (MDA-MB-231), and A549 cells and MDA-MB-231 cells, each transfected with the human fibroblast activation protein (FAPα) gene (FAPα/A549, FAPα/MDA-MB-231) were used in the experiments as cancer cells with low FAPα expression and cancer cells with high FAPα expression (mimic after high-order histogenesis), respectively. For each type, the cells were seeded in a 24-well plate at 2×10^4 cells per well and cultured for 2 days. An appropriate amount of two ^211At-labeled FAPI derivatives (PIP(1,H) […], PIP-amide(1,H) (Example 14)) were added to each type of the above cells, respectively, and cultured for 30 min. The supernatant was removed by aspiration, and the cells were washed with PBS(−), and then 0.1N sodium hydroxide solution was added to lyse the cells, and the intracellular radioactivity was measured by a gamma counter. The radioactivity count was corrected per unit protein amount (counts/μg protein). […] Considering that the uptake level into human embryonic kidney-derived cells (HEK293) was about 20 counts/μg protein at most, based on the results of PIP(1,F) and the like in Experimental Example 1, it can be said that cancer cells take up more FAPI derivatives than non-cancer cells.

FAPα/A549 cells = test: Uptake of 211At-labeled FAPI derivatives into A549 and FAPα/A549 cells; format: cell-based, human; conditions: for uptake level in dependence on FAPα expression: A549 (low FAPα) vs FAPα/A549 (high FAPα), 30 min; for competitive inhibition by addition of the corresponding unlabeled form: A549 / FAPα/A549 cells
Text: as §2

[4] = Stability of the radiolabeled product; format: physicochemical; conditions: alkylene chain length 0, after purification

## N#C[C@@H]1CCCN1C(=O)CNC(=O)c1ccnc2c(OCCCN3CCN(C(=O)Cc4ccc([211At])cc4)CC3)cccc12 [Example 3, ^211At(C1)-Pip-8Qui-FAPI(H)]
[1]
  uptake levels into FAPα-positive cells (intracellular radioactivity): PIP(1,F)>PIP(1,H)-8Qui>PEG(1,H)

## N#C[C@@H]1CCCN1C(=O)CNC(=O)c1ccnc2ccc(OCCOCCNC(=O)Cc3ccc([211At])cc3)cc12 [Example 6, ^211At(C1)-PEG2-6Qui-FAPI(H)]
[2]
  changes in body weight: comparable to that of the control group
[1]
  uptake levels into FAPα-positive cells (intracellular radioactivity): PIP(1,F)>PIP(1,H)-8Qui>PEG(1,H)
[3]
  inhibitory effect on tumor growth (tumor size): superior inhibitory effects on tumor growth compared to the control group

## N#C[C@@H]1CCCN1C(=O)CNC(=O)c1ccnc2ccc(OCCCN3CCN(C(=O)Cc4ccc([211At])cc4)CC3)cc12 [Example 2, ^211At(C1)-Pip-6Qui-FAPI(H)]
[2]
  changes in body weight: comparable to that of the control group
FAPα/MDA-MB-231 cells
  uptake level in dependence on FAPα expression: uptake level increased as FAPα expression increased
  competitive inhibition by addition of the corresponding unlabeled form: could be suppressed to a low level
FAPα/MDA-MB-231 cells; MDA-MB-231 and FAPα/MDA-MB-231 cells, cultured 30 min
  uptake level (intracellular radioactivity), comparison between derivatives: slightly higher than that of PIP-amide(1,H)
[3]
  inhibitory effect on tumor growth (tumor size): superior inhibitory effects on tumor growth compared to the control group
FAPα/A549 cells
  uptake level in dependence on FAPα expression: uptake level increased as FAPα expression increased
  competitive inhibition by addition of the corresponding unlabeled form: could be suppressed to a low level
FAPα/A549 cells; A549 and FAPα/A549 cells, cultured 30 min
  uptake level (intracellular radioactivity), comparison between derivatives: slightly higher than that of PIP-amide(1,H)

## N#C[C@@H]1CC(F)(F)CN1C(=O)CNC(=O)c1ccnc2ccc(OCCCN3CCN(C(=O)CCCO[C@@H]4OC(CO)[C@@H](O)C(O)[C@@H]4NC(=O)c4ccc([211At])cc4)CC3)cc12 (stereo partly drawn) [Example 9, ^211At(CO)-GlcN-Pip-6Qui-FAPI(F)]
[4]
  stability of the product: low

## N#C[C@@H]1CCCN1C(=O)CNC(=O)c1ccnc2ccc(OCCCN3CCN(C(=O)CCCO[C@@H]4OC(CO)[C@@H](O)C(O)[C@@H]4NC(=O)c4ccc([211At])cc4)CC3)cc12 (stereo partly drawn) [Example 10, ^211At(C0)-GlcN-Pip-6Qui-FAPI(H)]
[4]
  stability of the product: low

## N#C[C@@H]1CCCN1C(=O)CNC(=O)c1ccnc2ccc(OCCC(=O)N3CCN(C(=O)Cc4ccc([211At])cc4)CC3)cc12 [Example 14, ^211At(C1)-Pip-amido-6Qui-FAPI(H)]
FAPα/MDA-MB-231 cells
  uptake level in dependence on FAPα expression: uptake level increased as FAPα expression increased
  competitive inhibition by addition of the corresponding unlabeled form: could be suppressed to a low level
FAPα/A549 cells
  uptake level in dependence on FAPα expression: uptake level increased as FAPα expression increased
  competitive inhibition by addition of the corresponding unlabeled form: could be suppressed to a low level
